Test results reported in patent US4171312A, “Alkyl 7-[tetrahydro-4-(3-hydroxy-1-octenyl)-2,6-dioxo-4H-cyclopenta-1,3-dioxol -5-yl]-5-heptenoates” (G. D. Searle & Co., priority 1978, dated 1979).

Test system: fecundity of hamsters
Test: standardized test for capacity to inhibit the fecundity of hamsters (implantation rate)
Assay type: in vivo, Syrian golden hamsters
Description: The contraceptive utility of the instant compounds is evident from the results of a standardized test for their capacity to inhibit the fecundity of hamsters. In this test, sexually-mature female Syrian golden hamsters weighing at least 105 g are mated; and to each of a group of 5 is administered, daily for 5 days beginning on the first day sperm appears in the vagina between 8:15 and 10:00 a.m., test compound dissolved or suspended in an inert vehicle. The initial daily dose is ordinarily 50 mg/kg in 0.2 ml of corn oil, subcutaneously or intragastrically. A group of such animals to which is likewise administered vehicle alone serves as controls. Approximately 48 hr. after the 5th dose, the animals are sacrificed and their uteri and ovaries inspected for implantation sites and corpora lutea. If the total number of the former divided by the total number of the later (i.e., the implantation rate) affords a value amounting to 0.5 or less, the compound is considered to inhibit fecundity in the foregoing test. The ED50 of such a compound is determined by repeating the test at appropriate doosage(s). Potency is expressed as the ratio of the ED50 of estrone to that of compound.

[1] = mated female Syrian golden hamsters, 10 mg/kg subcutaneously in corn oil, daily for 5 days

With `CCCCC[C@H](O)/C=C/C1C(C/C=C\CCCC(=O)OC)C(=O)C2OC(=O)OC21` (stereo partly drawn) [Example 1, methyl 7-[tetrahydro-4-(3S-hydroxy-1E-octenyl)-2,6-dioxo-4H-cyclopenta-1,3-dioxol-5-yl]-5Z-heptenoate] the ED50 (Mesocricetus auratus, 120 h, mated female Syrian golden hamsters, daily for 5 days, read-out: ED50 (inhibition of fecundity)) was 5.6 mg/kg, the “implantation rate (total implantation sites divided by total corpora lutea)” value [1] was 0.16 and the “inhibition of fecundity (implantation rate 0.5 or less)” value [1] was “inhibited fecundity”. The “potency (ratio of the ED50 of estrone to that of compound)” value (relative to estrone, hamster fecundity test) was “approximately 1%”.
